According to patent US20200032271A1, “COMBINATION THERAPY WITH LIPOSOMAL ANTISENSE OLIGONUCLEOTIDES” (Bio-Path Holdings, Inc., priority 2016, published 2020):
[PEt] = P-ethoxy (ethyl phosphotriester) internucleoside linkage

Experiment: Adverse events in study 2003-0578 (NCI CTCAE grading)

BP1001: liposome-incorporated P-ethoxy antisense oligodeoxynucleotide (5′-ATATTTGGCGATGGCTTC-3′, SEQ ID NO: 1) specific to grb2 mRNA, in neutral DOPC liposomes (DNA, all [PEt], methylation of C not given here; incorporated in neutral DOPC liposomes)
2: Leukocytosis ≥Grade 3, number of patients (monotherapy 10 mg/m^2 (n = 6)) | Pneumonia ≥Grade 3, number of patients (monotherapy 10 mg/m^2 (n = 6)) | Respiratory distress ≥Grade 3, number of patients (monotherapy 10 mg/m^2 (n = 6))
0: Hypovolemia ≥Grade 3, number of patients (monotherapy 10 mg/m^2 (n = 6)) | Investigations ≥Grade 3, number of patients (monotherapy 10 mg/m^2 (n = 6)) | Penile Pain ≥Grade 3, number of patients (monotherapy 10 mg/m^2 (n = 6)) | Platelet count decreased ≥Grade 3, number of patients (monotherapy 10 mg/m^2 (n = 6)) | Psychiatric disorders ≥Grade 3, number of patients (monotherapy 10 mg/m^2 (n = 6)) | Renal and urinary disorders ≥Grade 3, number of patients (monotherapy 10 mg/m^2 (n = 6)) | Reproductive system and breast disorders ≥Grade 3, number of patients (monotherapy 10 mg/m^2 (n = 6)) | Tumor lysis syndrome ≥Grade 3, number of patients (monotherapy 10 mg/m^2 (n = 6)) | Vascular disorders ≥Grade 3, number of patients (monotherapy 10 mg/m^2 (n = 6)) | Abdominal Pain ≥Grade 3, number of patients (monotherapy 20 mg/m^2 (n = 3)) | Acidosis ≥Grade 3, number of patients (monotherapy 20 mg/m^2 (n = 3)) | Acute kidney injury ≥Grade 3, number of patients (monotherapy 20 mg/m^2 (n = 3)) | Asthenia ≥Grade 3, number of patients (monotherapy 20 mg/m^2 (n = 3)) | Back Pain ≥Grade 3, number of patients (monotherapy 20 mg/m^2 (n = 3)) | Cardiac disorders ≥Grade 3, number of patients (monotherapy 20 mg/m^2 (n = 3)) | Cataract ≥Grade 3, number of patients (monotherapy 20 mg/m^2 (n = 3)) | Dyspnea ≥Grade 3, number of patients (monotherapy 20 mg/m^2 (n = 3)) | Extremity Lower Edema ≥Grade 3, number of patients (monotherapy 20 mg/m^2 (n = 3)) | Eye disorders ≥Grade 3, number of patients (monotherapy 20 mg/m^2 (n = 3)) | Febrile neutropenia ≥Grade 3, number of patients (monotherapy 20 mg/m^2 (n = 3)) | Gastrointestinal disorders ≥Grade 3, number of patients (monotherapy 20 mg/m^2 (n = 3)) | General disorders and administration site conditions ≥Grade 3, number of patients (monotherapy 20 mg/m^2 (n = 3)) | Hallucinations ≥Grade 3, number of patients (monotherapy 20 mg/m^2 (n = 3)) | Heart failure ≥Grade 3, number of patients (monotherapy 20 mg/m^2 (n = 3)) | Hepatic failure ≥Grade 3, number of patients (monotherapy 20 mg/m^2 (n = 3)) | Hepatobiliary disorders ≥Grade 3, number of patients (monotherapy 20 mg/m^2 (n = 3)) | Hypocalcemia ≥Grade 3, number of patients (monotherapy 20 mg/m^2 (n = 3)) | Hypoglycemia ≥Grade 3, number of patients (monotherapy 20 mg/m^2 (n = 3)) | Hypokalemia ≥Grade 3, number of patients (monotherapy 20 mg/m^2 (n = 3)) | Hyponatremia ≥Grade 3, number of patients (monotherapy 20 mg/m^2 (n = 3)) | Hypotension ≥Grade 3, number of patients (monotherapy 20 mg/m^2 (n = 3)) | Hypovolemia ≥Grade 3, number of patients (monotherapy 20 mg/m^2 (n = 3)) | Hypoxia ≥Grade 3, number of patients (monotherapy 20 mg/m^2 (n = 3)) | Investigations ≥Grade 3, number of patients (monotherapy 20 mg/m^2 (n = 3)) | Metabolism and nutritional disorders ≥Grade 3, number of patients (monotherapy 20 mg/m^2 (n = 3)) | Multi-organ failure ≥Grade 3, number of patients (monotherapy 20 mg/m^2 (n = 3)) | Musculoskeletal and connective tissue disorders ≥Grade 3, number of patients (monotherapy 20 mg/m^2 (n = 3)) | Neoplasms benign, malignant, and unspecified (incl. cysts and polyps) ≥Grade 3, number of patients (monotherapy 20 mg/m^2 (n = 3)) | Penile Pain ≥Grade 3, number of patients (monotherapy 20 mg/m^2 (n = 3)) | Platelet count decreased ≥Grade 3, number of patients (monotherapy 20 mg/m^2 (n = 3)) | Pneumonia ≥Grade 3, number of patients (monotherapy 20 mg/m^2 (n = 3)) | Psychiatric disorders ≥Grade 3, number of patients (monotherapy 20 mg/m^2 (n = 3)) | Renal and urinary disorders ≥Grade 3, number of patients (monotherapy 20 mg/m^2 (n = 3)) | Reproductive system and breast disorders ≥Grade 3, number of patients (monotherapy 20 mg/m^2 (n = 3)) | Respiratory distress ≥Grade 3, number of patients (monotherapy 20 mg/m^2 (n = 3)) | Respiratory failure ≥Grade 3, number of patients (monotherapy 20 mg/m^2 (n = 3)) | Respiratory, thoracic, and mediastinal disorders ≥Grade 3, number of patients (monotherapy 20 mg/m^2 (n = 3)) | Tumor lysis syndrome ≥Grade 3, number of patients (monotherapy 20 mg/m^2 (n = 3)) | Vascular disorders ≥Grade 3, number of patients (monotherapy 20 mg/m^2 (n = 3)) | Abdominal Pain ≥Grade 3, number of patients (monotherapy 40 mg/m^2 (n = 3)) | Acidosis ≥Grade 3, number of patients (monotherapy 40 mg/m^2 (n = 3)) | Asthenia ≥Grade 3, number of patients (monotherapy 40 mg/m^2 (n = 3)) | Back Pain ≥Grade 3, number of patients (monotherapy 40 mg/m^2 (n = 3)) | Cardiac disorders ≥Grade 3, number of patients (monotherapy 40 mg/m^2 (n = 3)) | Cataract ≥Grade 3, number of patients (monotherapy 40 mg/m^2 (n = 3)) | Extremity Lower Edema ≥Grade 3, number of patients (monotherapy 40 mg/m^2 (n = 3)) | Eye disorders ≥Grade 3, number of patients (monotherapy 40 mg/m^2 (n = 3)) | Febrile neutropenia ≥Grade 3, number of patients (monotherapy 40 mg/m^2 (n = 3)) | Gastrointestinal disorders ≥Grade 3, number of patients (monotherapy 40 mg/m^2 (n = 3)) | General disorders and administration site conditions ≥Grade 3, number of patients (monotherapy 40 mg/m^2 (n = 3)) | Hallucinations ≥Grade 3, number of patients (monotherapy 40 mg/m^2 (n = 3)) | Heart failure ≥Grade 3, number of patients (monotherapy 40 mg/m^2 (n = 3)) | Hepatic failure ≥Grade 3, number of patients (monotherapy 40 mg/m^2 (n = 3)) | Hepatobiliary disorders ≥Grade 3, number of patients (monotherapy 40 mg/m^2 (n = 3)) | Hypocalcemia ≥Grade 3, number of patients (monotherapy 40 mg/m^2 (n = 3)) | Hypoglycemia ≥Grade 3, number of patients (monotherapy 40 mg/m^2 (n = 3)) | Hyponatremia ≥Grade 3, number of patients (monotherapy 40 mg/m^2 (n = 3)) | Hypotension ≥Grade 3, number of patients (monotherapy 40 mg/m^2 (n = 3)) | Hypovolemia ≥Grade 3, number of patients (monotherapy 40 mg/m^2 (n = 3)) | Hypoxia ≥Grade 3, number of patients (monotherapy 40 mg/m^2 (n = 3)) | Investigations ≥Grade 3, number of patients (monotherapy 40 mg/m^2 (n = 3)) | Multi-organ failure ≥Grade 3, number of patients (monotherapy 40 mg/m^2 (n = 3)) | Musculoskeletal and connective tissue disorders ≥Grade 3, number of patients (monotherapy 40 mg/m^2 (n = 3)) | Neoplasms benign, malignant, and unspecified (incl. cysts and polyps) ≥Grade 3, number of patients (monotherapy 40 mg/m^2 (n = 3)) | Penile Pain ≥Grade 3, number of patients (monotherapy 40 mg/m^2 (n = 3)) | Platelet count decreased ≥Grade 3, number of patients (monotherapy 40 mg/m^2 (n = 3)) | Pneumonia ≥Grade 3, number of patients (monotherapy 40 mg/m^2 (n = 3)) | Psychiatric disorders ≥Grade 3, number of patients (monotherapy 40 mg/m^2 (n = 3)) | Reproductive system and breast disorders ≥Grade 3, number of patients (monotherapy 40 mg/m^2 (n = 3)) | Respiratory distress ≥Grade 3, number of patients (monotherapy 40 mg/m^2 (n = 3)) | Respiratory failure ≥Grade 3, number of patients (monotherapy 40 mg/m^2 (n = 3)) | Tumor lysis syndrome ≥Grade 3, number of patients (monotherapy 40 mg/m^2 (n = 3)) | Vascular disorders ≥Grade 3, number of patients (monotherapy 40 mg/m^2 (n = 3)) | Abdominal Pain ≥Grade 3, number of patients (monotherapy 60 mg/m^2 (n = 3)) | Acidosis ≥Grade 3, number of patients (monotherapy 60 mg/m^2 (n = 3)) | Acute kidney injury ≥Grade 3, number of patients (monotherapy 60 mg/m^2 (n = 3)) | Asthenia ≥Grade 3, number of patients (monotherapy 60 mg/m^2 (n = 3)) | Back Pain ≥Grade 3, number of patients (monotherapy 60 mg/m^2 (n = 3))
1: Hypoxia ≥Grade 3, number of patients (monotherapy 10 mg/m^2 (n = 6)) | Multi-organ failure ≥Grade 3, number of patients (monotherapy 10 mg/m^2 (n = 6)) | Neoplasms benign, malignant, and unspecified (incl. cysts and polyps) ≥Grade 3, number of patients (monotherapy 10 mg/m^2 (n = 6)) | Respiratory failure ≥Grade 3, number of patients (monotherapy 10 mg/m^2 (n = 6)) | AML progression, number of patients (monotherapy 20 mg/m^2 (n = 3)) | Blood and lymphatic system disorders ≥Grade 3, number of patients (monotherapy 20 mg/m^2 (n = 3)) | Leukocytosis ≥Grade 3, number of patients (monotherapy 20 mg/m^2 (n = 3)) | Patients with AEs ≥Grade 3, number of patients (monotherapy 20 mg/m^2 (n = 3)) | Acute kidney injury ≥Grade 3, number of patients (monotherapy 40 mg/m^2 (n = 3)) | Blood and lymphatic system disorders ≥Grade 3, number of patients (monotherapy 40 mg/m^2 (n = 3)) | Dyspnea ≥Grade 3, number of patients (monotherapy 40 mg/m^2 (n = 3)) | Hypokalemia ≥Grade 3, number of patients (monotherapy 40 mg/m^2 (n = 3)) | Leukocytosis ≥Grade 3, number of patients (monotherapy 40 mg/m^2 (n = 3)) | Metabolism and nutritional disorders ≥Grade 3, number of patients (monotherapy 40 mg/m^2 (n = 3)) | Renal and urinary disorders ≥Grade 3, number of patients (monotherapy 40 mg/m^2 (n = 3)) | Respiratory, thoracic, and mediastinal disorders ≥Grade 3, number of patients (monotherapy 40 mg/m^2 (n = 3))
4: Patients with AEs ≥Grade 3, number of patients (monotherapy 10 mg/m^2 (n = 6))
3: Metabolism and nutritional disorders ≥Grade 3, number of patients (monotherapy 10 mg/m^2 (n = 6)) | Respiratory, thoracic, and mediastinal disorders ≥Grade 3, number of patients (monotherapy 10 mg/m^2 (n = 6)) | AML progression, number of patients (monotherapy 40 mg/m^2 (n = 3)) | Patients with AEs ≥Grade 3, number of patients (monotherapy 40 mg/m^2 (n = 3)) | AML progression, number of patients (monotherapy 60 mg/m^2 (n = 3))
